In assay [1] the target is human MER (528-end) (Homo sapiens (Human), UniProt Q12866). Briefly: HTRF Kinase Activity Biochemical Assay (KinEASE-TK). Particulars: 10 uM ATP. In short, it runs like this:
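Activity read-out is the HTRF ratio (665 nm over 620 nm emission, ×10,000; excitation 340 nm) after 1 h detection with 0.375 nM Eu3+-cryptate anti-TK antibody plus 0.062 uM SA-XL665. Preceding kinase step: human MER (528-end), biotinylated TK substrate, 1 h, room temperature.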

For assay [2], the target named is BCR fusion to kinase domain of MerTK (Ba/F3-MerTK) (Homo sapiens, UniProt Q12866). The assay is described as follows: In Cell TAM Kinase Assay Using BaF3 Cellular System. Particulars: Ba/F3 BCR-kinase fusion proliferation, 72 hours, Cell Titer Glo; kinase not given; read-out: IC50. In kind it is cell-based, murine. An excerpt: Three Ba/F3 cell lines (a murine IL-3 dependent pro-B cell line) expressing BCR fusions to the kinase domains of either MerTK (Ba/F3-MerTK), Axl (Ba/F3-Axl), or Tyro3 (Ba/F3-Tyro3) were purchased from Advanced Cellular Dynamics. The IL-3 independence of all 3 cell lines was confirmed. After thawing, the 3 Ba/F3 cell lines were split and maintained in cell culture media, which consisted of RPMI-1640-HEPES (Thermo-Cat #22400-089) with 1× Glutamax (Thermo-Cat #35050-061) and 10% FBS (Sigma-Cat #F4135 (500 ml), at a cell density range of 0.05×10^6−1×10^6 cells/mL 4 days before used in the routine screen. Compound plates were prepared using Nunc™ white 384-well optical bottom plates (ThermoFisher, USA) with compound in 25 nL dimethyl sulfoxide in each well. For routine assays, each of the 3 Ba/F3 cell lines was seeded at 1,000 cells per well with 25 µL of cell culture media directly into 384-well compound plates and incubated for 72 hours. Cell proliferation was then measured by adding 25 μL of Cell Titer Glo 2.0 (Promega, USA). After incubating with Cell Titer Glo at room temperature for 30 mins, the luminescence intensity, which quantifies the cell viability, was measured using an Envision™ plate reader (PerkinElmer, USA). […] In the presence of IL-3, the proliferation of the Ba/F3-Tyro3 cells is no longer dependent on the Tyro3 kinase activity.

Assay [3] addresses human c-MER catalytic domain (Homo sapiens (Human), UniProt Q12866). Briefly: TR-FRET Kinase Activity Biochemical Assay (LanthaScreen). Particulars: 10 uM ATP, 1 hour, kinase not given. In a few lines:
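Activity was quantified as the ratio of 495 nm to 520 nm emission (excitation 340 nm) in a LanthaScreen TR-FRET format. The enzyme was the human c-MER catalytic domain, and the substrate was fluorescein-poly-GT. Detection used 2 nM Tb anti-phosphotyrosine antibody for 30 min after termination with 10 mM EDTA.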

human c-MER catalytic domain, sequence (Q12866 587-858): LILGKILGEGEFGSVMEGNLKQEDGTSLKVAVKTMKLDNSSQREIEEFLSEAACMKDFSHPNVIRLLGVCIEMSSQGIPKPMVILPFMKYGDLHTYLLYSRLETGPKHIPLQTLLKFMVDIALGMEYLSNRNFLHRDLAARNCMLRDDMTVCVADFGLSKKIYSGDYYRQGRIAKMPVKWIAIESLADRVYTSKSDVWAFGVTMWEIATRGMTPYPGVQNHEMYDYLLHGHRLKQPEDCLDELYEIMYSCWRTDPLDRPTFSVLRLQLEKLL
human MER (528-end), sequence (Q12866 528-999 limits assumed): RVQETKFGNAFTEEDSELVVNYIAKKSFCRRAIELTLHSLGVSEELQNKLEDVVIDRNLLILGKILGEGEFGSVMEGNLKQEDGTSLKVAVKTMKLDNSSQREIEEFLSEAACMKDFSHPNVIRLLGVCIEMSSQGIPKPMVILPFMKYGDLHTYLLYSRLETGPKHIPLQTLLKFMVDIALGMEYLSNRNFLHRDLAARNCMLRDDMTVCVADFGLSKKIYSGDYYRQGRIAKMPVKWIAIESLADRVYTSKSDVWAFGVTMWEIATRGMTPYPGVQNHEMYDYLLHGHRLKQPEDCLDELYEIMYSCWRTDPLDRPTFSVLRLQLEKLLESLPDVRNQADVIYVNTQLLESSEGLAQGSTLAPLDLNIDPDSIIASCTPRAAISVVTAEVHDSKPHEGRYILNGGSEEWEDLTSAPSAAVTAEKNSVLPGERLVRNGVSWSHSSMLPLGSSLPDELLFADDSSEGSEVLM
BCR fusion to kinase domain of MerTK (Ba/F3-MerTK), sequence (Q12866 21-999 limits assumed, stated change not applied): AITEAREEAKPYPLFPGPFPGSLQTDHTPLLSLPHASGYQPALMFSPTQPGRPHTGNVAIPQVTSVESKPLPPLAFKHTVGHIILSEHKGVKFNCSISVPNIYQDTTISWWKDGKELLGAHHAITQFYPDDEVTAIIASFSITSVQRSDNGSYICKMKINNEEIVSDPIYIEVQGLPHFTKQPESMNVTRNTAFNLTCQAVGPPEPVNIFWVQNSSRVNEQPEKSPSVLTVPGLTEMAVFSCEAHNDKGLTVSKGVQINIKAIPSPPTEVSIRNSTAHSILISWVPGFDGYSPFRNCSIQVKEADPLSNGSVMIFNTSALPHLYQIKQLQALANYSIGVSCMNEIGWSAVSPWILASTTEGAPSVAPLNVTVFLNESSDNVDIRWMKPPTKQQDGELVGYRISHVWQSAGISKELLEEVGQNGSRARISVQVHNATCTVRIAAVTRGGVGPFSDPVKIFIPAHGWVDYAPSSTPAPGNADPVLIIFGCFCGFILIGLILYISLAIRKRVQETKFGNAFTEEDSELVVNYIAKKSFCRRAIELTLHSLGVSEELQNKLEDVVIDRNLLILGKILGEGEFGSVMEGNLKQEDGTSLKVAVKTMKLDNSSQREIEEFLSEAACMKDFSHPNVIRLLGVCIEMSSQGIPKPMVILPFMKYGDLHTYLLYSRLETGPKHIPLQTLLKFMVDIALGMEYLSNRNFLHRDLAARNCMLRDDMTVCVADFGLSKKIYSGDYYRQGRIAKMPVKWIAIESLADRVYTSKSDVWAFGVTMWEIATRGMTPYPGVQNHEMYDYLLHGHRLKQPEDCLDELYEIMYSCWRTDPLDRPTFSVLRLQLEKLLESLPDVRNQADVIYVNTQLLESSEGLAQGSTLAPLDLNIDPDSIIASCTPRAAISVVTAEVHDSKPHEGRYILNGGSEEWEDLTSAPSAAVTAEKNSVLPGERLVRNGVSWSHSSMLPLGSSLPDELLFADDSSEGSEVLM

With `Cn1cc(-c2cnc(N)c(C(=O)N[C@@H]3CCN(C(=O)OC4CCCC(c5ccccc5)C4)C3)c2)cn1` (stereo partly drawn) [Example 129, 3-phenylcyclohexyl (3R)-3-(2-amino-5-(1-methyl-1H-pyrazol-4-yl)nicotinamido)pyrrolidine-1-carboxylate], the IC50 (commonly the concentration at which inhibition is half-maximal) in assay [1] was greater than 1000 nM; in assay [2], 100 to 500 nM.

On to `Cn1cc(-c2cnc(N)c(C(=O)N[C@@H]3CCN(C(=O)c4ccc(-c5ccc(F)cc5F)cc4)C3)c2)cn1` [Example 365, (R)-2-amino-N-(1-(2′,4′-difluoro-[1,1′-biphenyl]-4-carbonyl)pyrrolidin-3-yl)-5-(1-methyl-1H-pyrazol-4-yl)nicotinamide], for which the IC50 is 10 to 100 nM in assay [1] and greater than 1000 nM in assay [2].

`Cn1cc(-c2cnc(N)c(C(=O)N[C@@H]3CCN(C(=O)c4ccc(-c5ccc(F)cc5Cl)cc4)C3)c2)cn1` [Example 366, (R)-2-amino-N-(1-(2′-chloro-4′-fluoro-[1,1′-biphenyl]-4-carbonyl)pyrrolidin-3-yl)-5-(1-methyl-1H-pyrazol-4-yl)nicotinamide]: the IC50 in assay [1] lay within 10 to 100 nM; in assay [2] it was 100 to 500 nM.

Consider `Cn1cc(-c2cnc(N)c(C(=O)N[C@@H]3CCN(C(=O)c4ccc(-c5ccccc5F)cc4)C3)c2)cn1` [Example 370, (R)-2-amino-N-(1-(2′-fluoro-[1,1′-biphenyl]-4-carbonyl)pyrrolidin-3-yl)-5-(1-methyl-1H-pyrazol-4-yl)nicotinamide], for which the results for the IC50 in assay [1] and in assay [2] were 10 to 100 nM and greater than 1000 nM, respectively.

Consider `Cn1cc(-c2cnc(N)c(C(=O)N[C@@H]3CCN(C(=O)c4ccc(-c5ccc(C=O)cc5)cc4)C3)c2)cn1` [Example 381, (R)-2-amino-N-(1-(4′-formyl-[1,1′-biphenyl]-4-carbonyl)pyrrolidin-3-yl)-5-(1-methyl-1H-pyrazol-4-yl)nicotinamide], for which the IC50 was 100 to 1000 nM in assay [1] and greater than 1000 nM in assay [2].

On to `Cn1cc(-c2cnc(N)c(C(=O)N[C@@H]3CCN(C(=O)c4ccc(-c5ccc(Oc6ccc(N)cc6)cc5)cc4)C3)c2)cn1` [Example 505, (R)-2-amino-N-(1-(4′-(4-aminophenoxy)-[1,1′-biphenyl]-4-carbonyl)pyrrolidin-3-yl)-5-(1-methyl-1H-pyrazol-4-yl)nicotinamide], for which the IC50 in assay [1] is 100 to 1000 nM; in assay [2], greater than 1000 nM.

With `Cc1cscc1-c1ccc(C(=O)N2CC[C@@H](NC(=O)c3cc(-c4cnn(C)c4)cnc3N)C2)cc1` [Example 523, (R)-2-amino-5-(1-methyl-1H-pyrazol-4-yl)-N-(1-(4-(4-methylthiophen-3-yl)benzoyl)pyrrolidin-3-yl)nicotinamide], the figures for the IC50 in assay [1] and in assay [2] were 10 to 100 nM and 500 to 1000 nM, respectively.

`Cn1cc(-c2cnc(N)c(C(=O)N[C@H]3CN(C(=O)c4ccc(Br)cc4)C[C@@H]3O)c2)cn1` [Example 732, 2-amino-N-((3S,4S)-1-(4-bromobenzoyl)-4-hydroxypyrrolidin-3-yl)-5-(1-methyl-1H-pyrazol-4-yl)nicotinamide] came in with an IC50 in assay [3] greater than 1000 nM.

For `Cn1cc(-c2cnc(N)c(C(=O)N[C@H]3CN(C(=O)c4ccc(-c5ccccc5)cc4)C[C@@H]3O)c2)cn1` [Example 742, N-((3S,4S)-1-([1,1′-biphenyl]-4-carbonyl)-4-hydroxypyrrolidin-3-yl)-2-amino-5-(1-methyl-1H-pyrazol-4-yl)nicotinamide], the IC50 in assay [3] was in the range of 100 to 1000 nM.

`Cn1cc(-c2cnc(N)c(C(=O)N[C@@H]3CN(C(=O)c4ccc(-c5ccccc5)cc4)C[C@@H]3O)c2)cn1` [Example 743, N-((3R,4S)-1-([1,1′-biphenyl]-4-carbonyl)-4-hydroxypyrrolidin-3-yl)-2-amino-5-(1-methyl-1H-pyrazol-4-yl)nicotinamide] showed a half-inhibitory concentration (IC50) in assay [3] greater than 1000 nM.

On to `Cn1cc(-c2cnc(N)c(C(=O)N[C@@H]3CCN(C(=O)c4ccc(-c5ccc(F)cc5Cl)cc4)C3)n2)cn1` [Example 745, (R)-3-amino-N-(1-(2′-chloro-4′-fluoro-[1,1′-biphenyl]-4-carbonyl)pyrrolidin-3-yl)-6-(1-methyl-1H-pyrazol-4-yl)pyrazine-2-carboxamide], for which, in assay [3], the IC50 is 10 to 100 nM.

On to `Cn1cc(-c2cnc(N)c(C(=O)N[C@@H]3CCN(C(=O)c4ccc5cc(OCC6CCNCC6)ccc5c4)C3)c2)cn1` [Example 761], for which the IC50 in assay [2] was greater than 1000 nM.

In assay [3], `CN1CCN(c2cc(-c3cnc(N)c(C(=O)N[C@@H]4CCN(C(=O)c5ccc(-c6ccc(F)cc6Cl)cc5)C4)c3)ccn2)CC1` [Example 780, (R)-6-amino-N-(1-(2′-chloro-4′-fluoro-[1,1′-biphenyl]-4-carbonyl)pyrrolidin-3-yl)-2′-(4-methylpiperazin-1-yl) -[3,4′-bipyridine]-5-carboxamide] displayed an IC50 of less than 10 nM.

Take `Nc1ncc(-c2ccc(N3CCOCC3)cc2)cc1C(=O)N[C@@H]1CCN(C(=O)c2ccc(-c3ccc(F)cc3Cl)cc2)C1` [Example 782, (R)-2-amino-N-(1-(2′-chloro-4′-fluoro-[1,1′-biphenyl]-4-carbonyl)pyrrolidin-3-yl)-5-(4-morpholinophenyl)nicotinamide]: in assay [3], the IC50 was in the range of 10 to 100 nM.

Regarding `Cn1cc(-c2cnc3[nH]nc(N[C@@H]4CCN(C(=O)c5ccc(-c6ccc7c(c6)CCCN7)cc5)C4)c3c2)cn1` [Example 790, (R)-(3-((5-(1-methyl-1H-pyrazol-4-yl)-1H-pyrazolo[3,4-b]pyridin-3-yl)amino)pyrrolidin-1-yl)(4-(1,2,3,4-tetrahydroquinolin-6-yl)phenyl)methanone], the IC50 in assay [3] was 10 to 100 nM.

In assay [3], `Cn1cc(-c2cnc3[nH]nc(N[C@@H]4CCN(C(=O)c5ccc(Oc6ccccc6)cc5)C4)c3c2)cn1` [Example 791, (R)-(3-((5-(1-methyl-1H-pyrazol-4-yl)-1H-pyrazolo[3,4-b]pyridin-3-yl)amino)pyrrolidin-1-yl)(4-phenoxyphenyl)methanone] returned an IC50 of 100 to 1000 nM.

In the case of `Cn1cc(-c2cnc3[nH]nc(N[C@@H]4CCN(C(=O)c5ccc(-c6ccc(OC7CCNCC7)cc6)cc5)C4)c3c2)cn1` [Example 792, (R)-(3-((5-(1-methyl-1H-pyrazol-4-yl)-1H-pyrazolo[3,4-b]pyridin-3-yl)amino)pyrrolidin-1-yl)(4′-(piperidin-4-yloxy)-[1,1′-biphenyl]-4-yl)methanone], the IC50 in assay [3] was less than 10 nM.

In assay [3], `Cn1cc(-c2cnc3[nH]nc(N[C@@H]4CCN(C(=O)c5ccc(-c6ccc(CN7CCOCC7)cc6)cc5)C4)c3c2)cn1` [Example 793, (R)-(3-((5-(1-methyl-1H-pyrazol-4-yl)-1H-pyrazolo[3,4-b]pyridin-3-yl)amino)pyrrolidin-1-yl)(4′-(morpholinomethyl)-[1,1′-biphenyl]-4-yl)methanone] yielded an IC50 of 100 to 1000 nM.

As to `Cn1cc(-c2cnc(N)c(C(=O)N[C@@H]3CCN(C(=O)c4ccc(-c5ccc(C(C)(C)N)cc5)cc4)C3)c2)cn1` [Example 801, (R)-2-amino-N-(1-(4′-(2-aminopropan-2-yl)-[1,1′-biphenyl]-4-carbonyl)pyrrolidin-3-yl)-5-(1-methyl-1H-pyrazol-4-yl)nicotinamide], the IC50 in assay [3] was in the range of 100 to 1000 nM.

`Cn1cc(-c2cnc(N)c(C(=O)N[C@@H]3CCN(C(=O)c4ccc(-c5ccc(Nc6ccc(N)cc6)cc5)cc4)C3)c2)cn1` [Example 815, (R)-2-amino-N-(1-(4′-((4-aminophenyl)amino)-[1,1′-biphenyl]-4-carbonyl)pyrrolidin-3-yl)-5-(1-methyl-1H-pyrazol-4-yl)nicotinamide]: the concentration for half-maximal inhibition (IC50) in assay [3] is 10 to 100 nM.

`CC(/C=C/c1ccc(C(=O)N2CC[C@@H](NC(=O)c3cc(-c4cnn(C)c4)cnc3N)C2)cc1)N1CCN(C)CC1` (stereo partly drawn) [Example 822, 2-amino-5-(1-methyl-1H-pyrazol-4-yl)-N-((3R)-1-(4-((E)-3-(4-methylpiperazin-1-yl)but-1-en-1-yl)benzoyl)pyrrolidin-3-yl)nicotinamide] came in with an IC50 in assay [3] of less than 10 nM.

With `CN(C)CCCNc1ncc(-c2cnn(C)c2)cc1C(=O)N[C@@H]1CCN(C(=O)c2ccc(-c3ccc(OCCCN(C)C)cc3)cc2)C1` [Example 848, (R)—N-(1-(4′-(3-(dimethylamino)propoxy)-[1,1′-biphenyl]-4-carbonyl)pyrrolidin-3-yl)-2-((3-(dimethylamino)propyl)amino)-5-(1-methyl-1H-pyrazol-4-yl)nicotinamide], the IC50 in assay [3] lay in the range of 100 to 1000 nM.

Compound “(R,E)-2-amino-5-(1-methyl-1H-pyrazol-4-yl)-N-(1-(4-(3-oxobut-1-en-1-yl)benzoyl)pyrrolidin-3-yl)nicotinamide [Example 681]” returned a 50% inhibitory concentration (IC50) in assay [3] greater than 1000 nM.

For the origin of these results see patent US12378224B2 (Dong-A Socio Holdings Co., Ltd., priority 2016, dated 2025).
